Legend:
Experiment in all cases: Test D pre-/postemergence plant response
Format in all cases: in vivo
[1] = test system: bermudagrass (Cynodon dactylon)
Method in brief: (§1)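 Seeds in loam–sand blend treated preemergence, and plants at 1- to 4-leaf stage (2–18 cm) treated postemergence, with compounds in non-phytotoxic solvent with surfactant. Greenhouse for 14–21 days, then visual rating against controls, 0 (no effect) to 100 (complete control).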

[2] = test system: bluegrass (annual bluegrass, Poa annua)
Method in brief: as §1

[3] = test system: chickweed (common chickweed, Stellaria media); conditions: Postemergence
Method in brief: as §1

[4] = test system: dallisgrass (Paspalum dilatatum)
Method in brief: as §1

[5] = test system: field bindweed (Convolvulus arvensis)
Method in brief: as §1

[6] = test system: goosegrass (Eleusine indica)
Method in brief: as §1

[7] = test system: groundsel (common groundsel, Senecio vulgaris); conditions: Postemergence
Method in brief: as §1

[8] = test system: guineagrass (Panicum maximum)
Method in brief: as §1

[9] = test system: johnsongrass (Sorghum halepense)
Method in brief: as §1

[10] = test system: kochia (Kochia scoparia)
Method in brief: as §1

[11] = test system: large crabgrass (Digitaria sanguinalis)
Method in brief: as §1

[12] = test system: mallow (common mallow, Malva sylvestris)
Method in brief: as §1

[13] = test system: morningglory (pitted morningglory, Ipomoea lacunosa)
Method in brief: as §1

[14] = test system: nutsedge (purple nutsedge, Cyperus rotundus)
Method in brief: as §1

[15] = test system: purslane (common purslane, Portulaca oleracea)
Method in brief: as §1

[16] = test system: quackgrass (Elytrigia repens)
Method in brief: as §1

[17] = test system: sandbur (southern sandbur, Cenchrus echinatus)
Method in brief: as §1

[18] = test system: signalgrass (broadleaf signalgrass, Brachiaria platyphylla)
Method in brief: as §1

[19] = Postemergence, 31 g ai/ha, scale 0 to 100
[20] = Postemergence, 62 g ai/ha, scale 0 to 100 (0 no effect, 100 complete control)
[21] = Postemergence, 125 g ai/ha, scale 0 to 100 (0 no effect, 100 complete control)
[22] = Postemergence, 250 g ai/ha, scale 0 to 100 (0 no effect, 100 complete control)
[23] = Preemergence, 62 g ai/ha, scale 0 to 100
[24] = Preemergence, 125 g ai/ha, scale 0 to 100
[25] = Preemergence, 250 g ai/ha, scale 0 to 100
[26] = 62 g ai/ha, scale 0 to 100 (0 no effect, 100 complete control)
[27] = 125 g ai/ha, scale 0 to 100 (0 no effect, 100 complete control)
[28] = 250 g ai/ha, scale 0 to 100 (0 no effect, 100 complete control)

COCCn1c(-c2cc(F)cc(F)c2)ncc(C(=O)C2=C(O)C3CCC(C3)C2=O)c1=O (centres unmarked) [Compound 243, 2-(3,5-difluorophenyl)-5-[(2-hydroxy-4-oxobicyclo[3.2.1]oct-2-en-3-yl)carbonyl]-3-(2-methoxyethyl)-4(3H)-pyrimidinone]
100: Plant response rating, Bermudagrass [1, 23] | Plant response rating, Bermudagrass [1, 24] | Plant response rating, Bermudagrass [1, 25] | Plant response rating, Bluegrass [2, 25] | Plant response rating, Dallisgrass [4, 23] | Plant response rating, Dallisgrass [4, 24] | Plant response rating, Dallisgrass [4, 25] | Plant response rating, Field Bindweed [5, 23] | Plant response rating, Field Bindweed [5, 24] | Plant response rating, Field Bindweed [5, 25] | Plant response rating, Goosegrass [6, 23] | Plant response rating, Goosegrass [6, 24] | Plant response rating, Goosegrass [6, 25] | Plant response rating, Groundsel [7, 26] | Plant response rating, Groundsel [7, 27] | Plant response rating, Groundsel [7, 28] | Plant response rating, Guineagrass [8, 23] | Plant response rating, Guineagrass [8, 24] | Plant response rating, Guineagrass [8, 25] | Plant response rating, Johnsongrass [9, 23] | Plant response rating, Johnsongrass [9, 24] | Plant response rating, Johnsongrass [9, 25] | Plant response rating, Kochia [10, 24] | Plant response rating, Kochia [10, 25] | Plant response rating, Crabgrass, Large [11, 23] | Plant response rating, Crabgrass, Large [11, 24] | Plant response rating, Crabgrass, Large [11, 25] | Plant response rating, Morningglory [13, 25] | Plant response rating, Nutsedge, Purple [14, 24] | Plant response rating, Nutsedge, Purple [14, 25] | Plant response rating, Purslane [15, 24] | Plant response rating, Purslane [15, 25] | Plant response rating, Sandbur [17, 24] | Plant response rating, Sandbur [17, 25] | Plant response rating, Signalgrass [18, 25]
40: Plant response rating, Bluegrass [2, 23] | Plant response rating, Quackgrass [16, 20]
65: Plant response rating, Field Bindweed [5, 19] | Plant response rating, Goosegrass [6, 19]
80: Plant response rating, Dallisgrass [4, 20] | Plant response rating, Kochia [10, 23] | Plant response rating, Crabgrass, Large [11, 20] | Plant response rating, Mallow [12, 24] | Plant response rating, Sandbur [17, 22]
75: Plant response rating, Bermudagrass [1, 19] | Plant response rating, Dallisgrass [4, 19] | Plant response rating, Goosegrass [6, 22] | Plant response rating, Guineagrass [8, 20] | Plant response rating, Guineagrass [8, 21] | Plant response rating, Johnsongrass [9, 22] | Plant response rating, Kochia [10, 22] | Plant response rating, Crabgrass, Large [11, 19] | Plant response rating, Morningglory [13, 19] | Plant response rating, Quackgrass [16, 22] | Plant response rating, Sandbur [17, 19] | Plant response rating, Sandbur [17, 20] | Plant response rating, Sandbur [17, 21] | Plant response rating, Signalgrass [18, 20] | Plant response rating, Signalgrass [18, 21]
85: Plant response rating, Bermudagrass [1, 20] | Plant response rating, Guineagrass [8, 22] | Plant response rating, Crabgrass, Large [11, 21] | Plant response rating, Crabgrass, Large [11, 22] | Plant response rating, Morningglory [13, 20] | Plant response rating, Morningglory [13, 21] | Plant response rating, Morningglory [13, 22] | Plant response rating, Quackgrass [16, 24]
20: Plant response rating, Nutsedge, Purple [14, 19] | Plant response rating, Nutsedge, Purple [14, 23]
35: Plant response rating, Bluegrass [2, 21] | Plant response rating, Bluegrass [2, 22] | Plant response rating, Chickweed ([3]; 31 g ai/ha, scale 0 to 100) | Plant response rating, Purslane [15, 19] | Plant response rating, Quackgrass [16, 19]
60: Plant response rating, Chickweed [3, 27] | Plant response rating, Kochia [10, 20] | Plant response rating, Mallow [12, 20]
70: Plant response rating, Chickweed [3, 28] | Plant response rating, Field Bindweed [5, 20] | Plant response rating, Field Bindweed [5, 21] | Plant response rating, Field Bindweed [5, 22] | Plant response rating, Goosegrass [6, 20] | Plant response rating, Goosegrass [6, 21] | Plant response rating, Guineagrass [8, 19] | Plant response rating, Johnsongrass [9, 19] | Plant response rating, Johnsongrass [9, 20] | Plant response rating, Johnsongrass [9, 21] | Plant response rating, Kochia [10, 21] | Plant response rating, Mallow [12, 21] | Plant response rating, Mallow [12, 22] | Plant response rating, Quackgrass [16, 21]
98: Plant response rating, Groundsel ([7]; 31 g ai/ha, scale 0 to 100) | Plant response rating, Mallow [12, 25] | Plant response rating, Morningglory [13, 24] | Plant response rating, Quackgrass [16, 25]
50: Plant response rating, Chickweed [3, 26] | Plant response rating, Kochia [10, 19] | Plant response rating, Mallow [12, 19] | Plant response rating, Mallow [12, 23] | Plant response rating, Nutsedge, Purple [14, 22] | Plant response rating, Purslane [15, 20] | Plant response rating, Purslane [15, 21] | Plant response rating, Purslane [15, 22] | Plant response rating, Signalgrass [18, 19]
90: Plant response rating, Dallisgrass [4, 21] | Plant response rating, Dallisgrass [4, 22]
25: Plant response rating, Nutsedge, Purple [14, 20] | Plant response rating, Nutsedge, Purple [14, 21]
95: Plant response rating, Bermudagrass [1, 21] | Plant response rating, Bermudagrass [1, 22] | Plant response rating, Bluegrass [2, 24] | Plant response rating, Purslane [15, 23] | Plant response rating, Signalgrass [18, 22] | Plant response rating, Signalgrass [18, 24]
5: Plant response rating, Bluegrass [2, 19] | Plant response rating, Bluegrass [2, 20]
